According to ChEMBL document CHEMBL5303769, “Data for DCP probe JNJ-42226314” (2023):

Experiments:
Endothelial lipase = Endothelial lipase (Homo sapiens, UniProt Q9Y5X9); assay: Endothelial lipase Endocannabinoid related and lipase panel
[1] = target: Beta-3 adrenergic receptor (Homo sapiens) (UniProt P13945); details: Compound concentration 10.0 uM
[2] = target: Urokinase-type plasminogen activator (Homo sapiens) (UniProt P00749); assay: Urokinase Serine protease panel; details: Compound concentration 10.0 uM
[3] = target: Kappa-type opioid receptor (Homo sapiens) (UniProt P41145); details: Compound concentration 10.0 uM
[4] = target: Muscarinic acetylcholine receptor M5 (Homo sapiens) (UniProt P08912); details: Compound concentration 10.0 uM
[5] = target: T1, Muscarinic acetylcholine receptor M3 (Homo sapiens, UniProt P20309); details: Compound concentration 10.0 uM
Target sequence in this assay (P20309 whole entry, looked up): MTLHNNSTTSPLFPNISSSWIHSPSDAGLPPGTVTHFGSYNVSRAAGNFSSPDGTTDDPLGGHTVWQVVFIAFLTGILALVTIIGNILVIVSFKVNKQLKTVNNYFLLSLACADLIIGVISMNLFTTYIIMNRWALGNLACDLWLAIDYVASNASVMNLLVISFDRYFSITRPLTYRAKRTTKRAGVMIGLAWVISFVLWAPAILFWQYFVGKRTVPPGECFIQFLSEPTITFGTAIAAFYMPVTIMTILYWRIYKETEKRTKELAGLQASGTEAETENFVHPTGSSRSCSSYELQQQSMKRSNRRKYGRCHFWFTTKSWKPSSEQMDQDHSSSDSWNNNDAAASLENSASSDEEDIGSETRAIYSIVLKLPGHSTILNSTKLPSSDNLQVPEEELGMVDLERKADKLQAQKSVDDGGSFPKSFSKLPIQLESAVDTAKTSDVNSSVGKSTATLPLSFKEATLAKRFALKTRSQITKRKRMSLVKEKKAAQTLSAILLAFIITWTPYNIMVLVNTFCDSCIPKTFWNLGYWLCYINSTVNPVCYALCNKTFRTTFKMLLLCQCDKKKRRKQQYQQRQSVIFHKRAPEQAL

[6] = target: Chymotrypsin (Homo sapiens) (UniProt Q99895+P17538+P40313+Q6GPI1); assay: Chymotrypsin Serine protease panel; type: protein assay; details: Compound concentration 10.0 uM
[7] = target: Histamine H4 receptor (Homo sapiens) (UniProt Q9H3N8); details: Compound concentration 10.0 uM
[8] = target: Sodium-dependent dopamine transporter (Homo sapiens) (UniProt Q01959); details: Compound concentration 10.0 uM
[9] = target: Sodium-dependent serotonin transporter (Homo sapiens) (UniProt P31645); details: Compound concentration 10.0 uM
[10] = target: 5-hydroxytryptamine receptor 6 (Homo sapiens) (UniProt P50406); details: Compound concentration 10.0 uM
Rattus norvegicus = species: Rattus norvegicus; details: Compound concentration 10.0 uM
[11] = target: Muscarinic acetylcholine receptor M2 (Homo sapiens) (UniProt P08172); details: Compound concentration 10.0 uM
[12] = target: T1, Muscarinic acetylcholine receptor M3; assay: GPCRScan assay: inhibition of M3; parameters: radioligand conc. used [nm] 0.3 – 1.0, parental cells stable CHO
Target sequence in this assay (P20309 whole entry): as the sequence (P20309 whole entry, looked up) above

[13] = target: Hepatic triacylglycerol lipase (Homo sapiens, UniProt P11150); assay: Hepatic lipase Endocannabinoid related and lipase panel
[14] = target: 5-hydroxytryptamine receptor 1D (Homo sapiens) (UniProt P28221); details: Compound concentration 10.0 uM
[15] = target: D(3) dopamine receptor (Homo sapiens) (UniProt P35462); details: Compound concentration 10.0 uM
[16] = target: 5-hydroxytryptamine receptor 3A (Homo sapiens) (UniProt P46098); details: Compound concentration 10.0 uM
[17] = target: Tissue-type plasminogen activator (Homo sapiens) (UniProt P00750); assay: TPA Serine protease panel; details: Compound concentration 10.0 uM
[18] = target: Neutrophil elastase (Homo sapiens) (UniProt P08246); assay: Elastase Serine protease panel; details: Compound concentration 10.0 uM
[19] = target: Coagulation factor VII (Homo sapiens) (UniProt P08709); assay: Factor VIIa Serine protease panel; details: Compound concentration 10.0 uM
[20] = target: Histamine H3 receptor (Homo sapiens) (UniProt Q9Y5N1); details: Compound concentration 10.0 uM
[21] = target: 5-hydroxytryptamine receptor 7 (Homo sapiens) (UniProt P34969); details: Compound concentration 10.0 uM
[22] = target: Mu-type opioid receptor (Homo sapiens) (UniProt P35372); details: Compound concentration 10.0 uM
Tryptase (Homo sapiens) = Tryptase (Homo sapiens) (UniProt Q9BZJ3+Q15661+Q9NRR2); assay: Tryptase Serine protease panel; details: Compound concentration 10.0 uM
[23] = target: Coagulation factor X (Homo sapiens) (UniProt P00742); assay: Factor Xa Serine protease panel; details: concentration not given here
[24] = target: Alpha-2A adrenergic receptor (Homo sapiens) (UniProt P08913); details: Compound concentration 10.0 uM
[25] = target: D(4) dopamine receptor (Homo sapiens) (UniProt P21917); details: Compound concentration 10.0 uM
[26] = target: Monoacylglycerol lipase ABHD6 (Homo sapiens, UniProt Q9BV23); assay: hABHD6 Endocannabinoid related and lipase panel
[27] = target: Sigma intracellular receptor 2 (Homo sapiens) (UniProt Q5BJF2); details: Compound concentration 10.0 uM
[28] = target: Histamine H2 receptor (Homo sapiens) (UniProt P25021); details: Compound concentration 10.0 uM
[29] = target: Myeloblastin (Homo sapiens) (UniProt P24158); assay: Proteinase 3 Serine protease panel; details: Compound concentration 10.0 uM
[30] = target: Serine protease 1 (Homo sapiens) (UniProt P07477); assay: Trypsin Serine protease panel; details: Compound concentration 10.0 uM
Homo sapiens = species: Homo sapiens; assay: Streptokinase Serine protease panel; details: Compound concentration 10.0 uM
[31] = target: Sodium-dependent noradrenaline transporter (Homo sapiens) (UniProt P23975); details: Compound concentration 10.0 uM
[32] = target: Alpha-2C adrenergic receptor (Homo sapiens) (UniProt P18825); details: Compound concentration 10.0 uM
[33] = target: Lysophosphatidylserine lipase ABHD12 (Homo sapiens, UniProt Q8N2K0); assay: hABHD12 Endocannabinoid related and lipase panel
[34] = target: 5-hydroxytryptamine receptor 5A (Homo sapiens) (UniProt P47898); details: Compound concentration 10.0 uM
[35] = target: D(2) dopamine receptor (Homo sapiens) (UniProt P14416); details: Compound concentration 10.0 uM
[36] = target: Kallikrein-1 (Homo sapiens) (UniProt P06870); assay: Kallikrein Serine protease panel; details: Compound concentration 10.0 uM
Lipoprotein lipase = Lipoprotein lipase (Homo sapiens, UniProt P06858); assay: Lipoprotein lipase Endocannabinoid related and lipase panel
[37] = target: Alpha-1D adrenergic receptor (Homo sapiens) (UniProt P25100); details: Compound concentration 10.0 uM
[38] = target: Histamine H1 receptor (Homo sapiens) (UniProt P35367); details: Compound concentration 10.0 uM
[39] = target: Beta-1 adrenergic receptor (Homo sapiens) (UniProt P08588); details: Compound concentration 10.0 uM
[40] = target: Plasminogen (Homo sapiens) (UniProt P00747); assay: Plasmin Serine protease panel; details: Compound concentration 10.0 uM
[41] = target: Muscarinic acetylcholine receptor M4 (Homo sapiens) (UniProt P08173); details: Compound concentration 10.0 uM
[42] = target: Cathepsin G (Homo sapiens) (UniProt P08311); assay: Cathepsin G Serine protease panel; details: Compound concentration 10.0 uM
[43] = target: Alpha-1B adrenergic receptor (Homo sapiens) (UniProt P35368); details: Compound concentration 10.0 uM
[44] = target: 5-hydroxytryptamine receptor 2B (Homo sapiens) (UniProt P41595); details: Compound concentration 10.0 uM
[45] = target: 5-hydroxytryptamine receptor 1B (Homo sapiens) (UniProt P28222); details: Compound concentration 10.0 uM
[46] = target: 5-hydroxytryptamine receptor 1A (Homo sapiens) (UniProt P08908); details: Compound concentration 10.0 uM
[47] = target: Alpha-2B adrenergic receptor (Homo sapiens) (UniProt P18089); details: Compound concentration 10.0 uM
Chymase (Homo sapiens) = Chymase (Homo sapiens) (UniProt P23946); assay: Chymase Serine protease panel; details: Compound concentration 10.0 uM
[48] = target: 5-hydroxytryptamine receptor 2A (Homo sapiens) (UniProt P28223); details: Compound concentration 10.0 uM
[49] = target: Prothrombin (Homo sapiens) (UniProt P00734); assay: Thrombin Serine protease panel; details: Compound concentration 10.0 uM
[50] = target: Sigma non-opioid intracellular receptor 1 (Homo sapiens) (UniProt Q99720); details: Compound concentration 10.0 uM
[51] = target: Beta-2 adrenergic receptor (Homo sapiens) (UniProt P07550); details: Compound concentration 10.0 uM
[52] = target: Delta-type opioid receptor (Homo sapiens) (UniProt P41143); details: Compound concentration 10.0 uM
[53] = target: Alpha-1A adrenergic receptor (Homo sapiens) (UniProt P35348); details: Compound concentration 10.0 uM
D(1B) dopamine receptor [54] = target: T2, D(1B) dopamine receptor (Homo sapiens, UniProt P21918); details: Compound concentration 10.0 uM
[55] = target: GABA-A receptor; anion channel (Rattus norvegicus) (UniProt O09028+P15431+P18506+P18508+P19969+P20236+P23574+P23576+P28471+P28473+P30191+P62813+P63079+P63138+Q91ZM7+Q9ES14); details: Compound concentration 10.0 uM
[56] = target: 5-hydroxytryptamine receptor 2C (Homo sapiens) (UniProt P28335); details: Compound concentration 10.0 uM
D(1B) dopamine receptor [57] = target: T2, D(1B) dopamine receptor; assay: GPCRScan assay: inhibition of D5; parameters: radioligand conc. used [nm] 2.0 – 3.0, parental cells HEKT
[58] = target: Monoacylglycerol lipase (Homo sapiens); assay: Fluorometric Assay (Inhibition of 4MU-B cleavage)

Chain of Muscarinic acetylcholine receptor M5 (Homo sapiens) (P08912 whole entry): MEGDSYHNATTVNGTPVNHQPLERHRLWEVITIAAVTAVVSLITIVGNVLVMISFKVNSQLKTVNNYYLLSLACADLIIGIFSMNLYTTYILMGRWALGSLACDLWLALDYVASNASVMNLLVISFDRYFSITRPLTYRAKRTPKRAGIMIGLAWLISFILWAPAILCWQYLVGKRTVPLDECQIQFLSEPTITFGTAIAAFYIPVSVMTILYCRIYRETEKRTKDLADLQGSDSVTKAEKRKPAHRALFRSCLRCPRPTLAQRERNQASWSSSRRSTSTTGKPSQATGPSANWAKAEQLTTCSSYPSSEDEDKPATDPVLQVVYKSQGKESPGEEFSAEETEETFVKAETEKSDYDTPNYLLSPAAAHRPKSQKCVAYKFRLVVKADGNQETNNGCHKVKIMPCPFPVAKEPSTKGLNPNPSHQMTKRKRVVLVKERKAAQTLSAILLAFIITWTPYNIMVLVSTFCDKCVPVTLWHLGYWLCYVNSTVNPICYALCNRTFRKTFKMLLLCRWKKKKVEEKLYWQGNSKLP
Chain of Alpha-1D adrenergic receptor (Homo sapiens) (P25100 whole entry): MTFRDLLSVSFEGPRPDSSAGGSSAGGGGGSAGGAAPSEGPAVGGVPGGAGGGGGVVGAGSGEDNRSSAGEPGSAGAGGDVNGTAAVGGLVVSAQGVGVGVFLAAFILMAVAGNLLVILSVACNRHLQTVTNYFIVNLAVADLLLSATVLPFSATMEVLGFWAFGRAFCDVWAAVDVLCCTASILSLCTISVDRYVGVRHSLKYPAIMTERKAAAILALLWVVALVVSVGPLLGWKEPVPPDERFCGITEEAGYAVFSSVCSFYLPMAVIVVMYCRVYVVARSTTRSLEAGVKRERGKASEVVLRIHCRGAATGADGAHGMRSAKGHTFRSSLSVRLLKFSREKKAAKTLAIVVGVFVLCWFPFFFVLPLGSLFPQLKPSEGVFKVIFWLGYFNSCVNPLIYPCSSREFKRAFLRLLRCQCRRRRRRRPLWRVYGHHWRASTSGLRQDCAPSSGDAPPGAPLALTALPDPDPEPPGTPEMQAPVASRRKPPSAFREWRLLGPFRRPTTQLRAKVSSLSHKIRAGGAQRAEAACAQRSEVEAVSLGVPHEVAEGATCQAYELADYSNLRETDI
Chain of Alpha-2B adrenergic receptor (Homo sapiens) (P18089 whole entry): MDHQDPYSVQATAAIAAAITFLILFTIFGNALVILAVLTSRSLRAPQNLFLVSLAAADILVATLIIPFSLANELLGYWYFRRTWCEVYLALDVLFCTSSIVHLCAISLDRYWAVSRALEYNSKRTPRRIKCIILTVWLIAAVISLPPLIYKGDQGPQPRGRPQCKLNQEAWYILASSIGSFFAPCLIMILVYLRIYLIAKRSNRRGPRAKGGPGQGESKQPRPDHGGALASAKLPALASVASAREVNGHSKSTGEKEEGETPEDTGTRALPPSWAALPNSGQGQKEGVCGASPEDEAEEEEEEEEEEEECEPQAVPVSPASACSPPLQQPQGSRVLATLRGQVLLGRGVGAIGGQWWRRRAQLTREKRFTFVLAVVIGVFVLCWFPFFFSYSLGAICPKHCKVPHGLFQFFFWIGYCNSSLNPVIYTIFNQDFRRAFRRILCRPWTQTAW
Chain of D(3) dopamine receptor (Homo sapiens) (P35462 whole entry): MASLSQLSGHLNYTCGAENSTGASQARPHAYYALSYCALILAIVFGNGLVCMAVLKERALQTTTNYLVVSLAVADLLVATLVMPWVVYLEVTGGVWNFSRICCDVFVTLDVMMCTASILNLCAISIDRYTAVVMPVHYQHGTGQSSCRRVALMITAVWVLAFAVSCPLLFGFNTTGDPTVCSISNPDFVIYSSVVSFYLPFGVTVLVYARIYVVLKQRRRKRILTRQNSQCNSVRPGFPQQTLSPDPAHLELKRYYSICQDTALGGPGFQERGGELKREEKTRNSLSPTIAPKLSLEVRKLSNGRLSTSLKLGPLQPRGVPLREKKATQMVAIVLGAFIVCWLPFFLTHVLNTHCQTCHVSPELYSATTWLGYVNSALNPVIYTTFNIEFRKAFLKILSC
Chain of Histamine H1 receptor (Homo sapiens) (P35367 whole entry): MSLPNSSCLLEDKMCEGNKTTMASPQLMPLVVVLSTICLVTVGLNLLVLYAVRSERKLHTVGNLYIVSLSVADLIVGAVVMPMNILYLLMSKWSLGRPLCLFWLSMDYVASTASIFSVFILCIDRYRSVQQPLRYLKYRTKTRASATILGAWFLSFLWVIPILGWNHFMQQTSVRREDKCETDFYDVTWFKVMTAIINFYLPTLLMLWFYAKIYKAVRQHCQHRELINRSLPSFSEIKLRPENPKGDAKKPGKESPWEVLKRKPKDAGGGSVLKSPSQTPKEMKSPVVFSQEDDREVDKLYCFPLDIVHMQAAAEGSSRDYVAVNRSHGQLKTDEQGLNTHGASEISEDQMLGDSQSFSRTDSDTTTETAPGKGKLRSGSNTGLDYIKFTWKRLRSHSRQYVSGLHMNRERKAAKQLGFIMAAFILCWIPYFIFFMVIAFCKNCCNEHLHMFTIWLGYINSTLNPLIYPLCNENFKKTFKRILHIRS
Chain of Beta-2 adrenergic receptor (Homo sapiens) (P07550 whole entry, looked up): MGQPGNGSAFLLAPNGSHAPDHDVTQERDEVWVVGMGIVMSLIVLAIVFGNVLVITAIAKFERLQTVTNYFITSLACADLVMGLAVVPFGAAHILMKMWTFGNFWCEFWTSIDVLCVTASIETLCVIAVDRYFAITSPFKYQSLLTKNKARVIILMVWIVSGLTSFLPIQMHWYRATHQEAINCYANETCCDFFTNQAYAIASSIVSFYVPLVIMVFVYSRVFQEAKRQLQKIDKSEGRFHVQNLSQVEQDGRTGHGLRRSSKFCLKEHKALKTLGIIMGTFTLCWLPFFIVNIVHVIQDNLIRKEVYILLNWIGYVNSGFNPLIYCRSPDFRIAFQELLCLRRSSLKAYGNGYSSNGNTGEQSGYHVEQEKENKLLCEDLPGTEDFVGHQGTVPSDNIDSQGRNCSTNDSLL
Chain of 5-hydroxytryptamine receptor 1D (Homo sapiens) (P28221 whole entry): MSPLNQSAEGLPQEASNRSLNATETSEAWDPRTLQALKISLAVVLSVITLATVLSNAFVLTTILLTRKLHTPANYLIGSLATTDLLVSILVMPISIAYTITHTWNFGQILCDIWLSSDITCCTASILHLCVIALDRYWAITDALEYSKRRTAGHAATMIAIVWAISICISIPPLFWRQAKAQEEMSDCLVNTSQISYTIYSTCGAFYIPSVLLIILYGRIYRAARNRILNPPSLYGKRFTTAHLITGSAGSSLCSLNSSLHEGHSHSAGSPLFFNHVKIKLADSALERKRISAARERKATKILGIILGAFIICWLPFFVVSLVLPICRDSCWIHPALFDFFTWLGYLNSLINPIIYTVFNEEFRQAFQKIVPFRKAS
Chain of Sigma non-opioid intracellular receptor 1 (Homo sapiens) (Q99720 whole entry): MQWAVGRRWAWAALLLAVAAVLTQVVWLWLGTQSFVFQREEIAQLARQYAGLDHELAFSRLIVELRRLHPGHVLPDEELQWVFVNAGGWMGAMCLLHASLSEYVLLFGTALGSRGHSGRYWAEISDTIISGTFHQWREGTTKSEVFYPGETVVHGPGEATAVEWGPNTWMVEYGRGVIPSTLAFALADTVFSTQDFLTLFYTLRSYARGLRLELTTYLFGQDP
T2 sequence (P21918 whole entry): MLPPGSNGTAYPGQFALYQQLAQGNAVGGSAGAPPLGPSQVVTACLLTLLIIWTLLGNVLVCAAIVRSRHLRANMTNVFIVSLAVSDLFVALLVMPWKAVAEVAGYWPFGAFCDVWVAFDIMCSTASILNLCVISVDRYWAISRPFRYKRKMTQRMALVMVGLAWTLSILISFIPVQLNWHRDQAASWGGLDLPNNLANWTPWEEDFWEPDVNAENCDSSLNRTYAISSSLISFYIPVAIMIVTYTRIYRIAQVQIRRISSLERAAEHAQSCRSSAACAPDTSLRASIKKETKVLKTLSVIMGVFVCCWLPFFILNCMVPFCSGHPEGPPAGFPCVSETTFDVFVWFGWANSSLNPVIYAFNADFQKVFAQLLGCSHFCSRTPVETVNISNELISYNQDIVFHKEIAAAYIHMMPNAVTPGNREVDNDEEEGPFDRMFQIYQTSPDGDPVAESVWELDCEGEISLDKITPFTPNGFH
Chain of Mu-type opioid receptor (Homo sapiens) (P35372 whole entry): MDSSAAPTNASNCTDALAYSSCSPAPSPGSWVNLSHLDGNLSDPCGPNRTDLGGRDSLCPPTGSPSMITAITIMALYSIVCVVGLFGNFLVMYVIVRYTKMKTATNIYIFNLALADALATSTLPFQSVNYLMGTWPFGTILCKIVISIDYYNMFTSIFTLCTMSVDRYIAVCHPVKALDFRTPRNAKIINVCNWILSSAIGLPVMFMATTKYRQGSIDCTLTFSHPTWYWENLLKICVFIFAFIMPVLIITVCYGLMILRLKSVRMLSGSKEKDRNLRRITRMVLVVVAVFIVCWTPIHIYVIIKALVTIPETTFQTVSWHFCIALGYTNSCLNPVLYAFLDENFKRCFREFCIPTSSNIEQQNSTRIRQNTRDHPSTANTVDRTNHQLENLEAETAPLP

With O=C(c1ccc2c(ccn2-c2ccc(F)cc2)c1)N1CC(N2CCN(C(=O)c3nccs3)CC2)C1 the IC50 (Endothelial lipase) was > 30 µM, the inhibition [1] was 0.7% and the inhibition [2] was 2%. It also gave an inhibition [3] of 11.1%, an inhibition [4] of -7.3% and an inhibition [5] of 54.7%. It also gave an inhibition [6] of -3%, an inhibition [7] of -8.52% and an inhibition [8] of 25.2%. It also gave an inhibition [9] of 8.15%, an inhibition [10] of -9.24% and an inhibition (Rattus norvegicus) of -0.52%. For the same molecule, the inhibition [11] was -3.14%, the Ki [12] was > 10 µM and the pKi [12] was < 5. The IC50 [13] was > 30 µM, the inhibition [14] was 18.2% and the inhibition [15] was 1.99%. It also gave an inhibition [16] of 19.3%, an inhibition [17] of 6% and an inhibition [18] of 4%. For the same molecule, the inhibition [19] was -5%, the inhibition [20] was 19.4% and the inhibition [21] was 12.8%. It also gave an inhibition [22] of 14.5%, an inhibition (Tryptase (Homo sapiens)) of 2% and an inhibition [23] of 0%. The inhibition [24] was 14.2%, the inhibition [25] was 0.01% and the IC50 [26] was > 10 µM. For the same molecule, the inhibition [27] was 27.6%, the inhibition [28] was 2.62% and the inhibition [29] was 7%. The inhibition [30] was -10%, the inhibition (Homo sapiens) was 1% and the inhibition [31] was 8.01%. The inhibition [32] was 4.03%, the IC50 [33] was > 10 µM and the inhibition [34] was 17.7%. The inhibition [35] was -9.71%, the inhibition [36] was 4% and the IC50 (Lipoprotein lipase) was > 30 µM. It also gave an inhibition [37] of 9.02%, an inhibition [38] of 4.93% and an inhibition [39] of -2.68%. The inhibition [40] was 4%, the inhibition [41] was 1.62% and the inhibition [42] was 13%. It also gave an inhibition [43] of -6.82%, an inhibition [44] of 8.47% and an inhibition [45] of 6.33%. The inhibition [46] was 11.6%, the inhibition [47] was 9.63% and the inhibition (Chymase (Homo sapiens)) was 11%. It also gave an inhibition [48] of 7.06%, an inhibition [49] of -1% and an inhibition [50] of 27.6%. The inhibition [51] was -2.21%, the inhibition [52] was 9.83% and the inhibition [53] was -2.02%. The inhibition (D(1B) dopamine receptor [54]) was -0.29%.
Molecule Cc1cc(C(=O)N2CCN(C3CN(C(=O)c4ccc(-c5ccccc5)cc4)C3)CC2)no1 has an inhibition [1] of 23.6%, an inhibition [3] of 24.2% and an inhibition [4] of -4.46%. It also gave an inhibition [5] of 48.9%, an inhibition [7] of -7.89% and an inhibition [8] of 43.5%. For the same molecule, the inhibition [9] was 22.3%, the inhibition [10] was 17% and the inhibition (Rattus norvegicus) was 38%. The inhibition [11] was -3.68%, the inhibition [14] was 22.7% and the inhibition [15] was 11.1%. It also gave an inhibition [16] of 9.93%, an inhibition [20] of 41.2% and an inhibition [21] of 12.4%. The inhibition [22] was 49.1%, the inhibition [55] was 36.5% and the inhibition [24] was 23.3%. The inhibition [25] was 16%, the inhibition [56] was 2.58% and the inhibition [27] was 43.6%. For the same molecule, the inhibition [28] was 32.4%, the inhibition [31] was 3.51% and the inhibition [32] was 16.6%. The inhibition [34] was 11.5%, the inhibition [35] was 8.15% and the inhibition [37] was 10.4%. It also gave an inhibition [38] of 29.9%, an inhibition [39] of -6.07% and an inhibition [43] of -7.67%. For the same molecule, the Ki (D(1B) dopamine receptor [57]) was > 10 µM, the pKi (D(1B) dopamine receptor [57]) was < 5 and the inhibition [44] was 8.86%. The inhibition [45] was 35%, the inhibition [46] was 18.1% and the inhibition [47] was 23%. For the same molecule, the inhibition [48] was 8.77%, the IC50 [58] was > 10 µM (not active) and the inhibition [50] was 37.1%. It also gave an inhibition [51] of 0.18%, an inhibition [52] of 39% and an inhibition [53] of -6.9%.
